The values below come from PubChem BioAssay AID2305 (GlaxoSmithKline (GSK), 2010).

For this assay, the system named is P. falciparum 3D7 growth, pLDH absorbance. Description: P. falciparum 3D7 growth inhibition, dose response, strain 3D7 (AID 2305).

`Cc1cnc(C(=O)Nc2cccc(-c3cccc(-c4nc5ccc(F)cc5[nH]4)c3)c2)cn1` came in with an IC50 of 770 nM.
The compound `COC(C(=O)OCCC1CCCN1C)(c1ccccc1)c1ccccc1` (centres undefined) had an IC50 of 970 nM.
Turning to `COc1ccc(NC(=O)c2cc(-c3ccc(NC(C)=O)cc3)cnc2N)cc1`, the IC50 is 810 nM.
Take `NC1=NC(C=Cc2ccccc2)N(OCCCCCCON2C(N)=NC(N)=NC2C=Cc2ccccc2)C(N)=N1` (centres undefined): the IC50 came out at 610 nM.
The compound `Cc1cc(NN=Cc2ccccc2)c2cc(C(F)(F)F)ccc2n1` returned an IC50 of 150 nM.
`Cn1nc(C(F)(F)F)c(-c2ccc(Br)cc2)c1NC(=O)Nc1ccc(F)cc1F` came in with a half-inhibitory concentration (IC50) of 790 nM.
`O=C(NC(NC(=S)Nc1ccc([N+](=O)[O-])cc1)C(Cl)(Cl)Cl)c1cccc(Cl)c1` (centres undefined) displayed an IC50 of 730 nM.
In turn, `CC(C)(C)OC(=O)NCCc1cccc(-c2c[nH]c3ncc(-c4cccc(NS(C)(=O)=O)c4)cc23)c1` came in with an IC50 of 680 nM.
`NC1CCCN(Cc2cccc(-c3ccc(-c4nc5ccc(C(F)(F)F)cc5[nH]4)cc3)c2)C1` (centres undefined): the IC50 came to 520 nM.
As for `CCOC(=O)c1ccc(N(CCCN(CCCN(c2ccc(C(=O)OCC)cc2)S(=O)(=O)c2ccc(C)cc2)CCc2ccc(O)cc2)S(=O)(=O)c2ccc(C)cc2)cc1`, the IC50 was 1050 nM.
As to `CN(c1cc(NC(=O)c2ccc(F)cc2)ccn1)C1CCN(Cc2cccc(C#N)c2)CC1`, the IC50 came to 830 nM.
`CNCCNCc1ccc(-c2ccc(-c3nc4ccc(F)cc4[nH]3)cc2)cc1` showed an IC50 of 390 nM.
In the case of `OC(CNc1cccc(Cl)c1)Cn1c2ccc(Cl)cc2c2cc(Cl)ccc21` (centres undefined) it was 960 nM; in that of `Cc1cccc2[nH]c(-c3cccc(-c4cccc(NC(=O)Nc5ccc(F)c(F)c5F)c4)c3)nc12`, 110 nM.
`O=C(/C=C/c1ccc(Cl)c(Cl)c1)NCCCCCN1CCC(NC(=O)Nc2cccc(C(F)(F)F)c2)CC1` gave an IC50 of 700 nM.
`O=[N+]([O-])c1cccc(CNCC2CCN(Cc3ccc(Cl)c(Cl)c3)CC2)c1` yielded an IC50 of 910 nM.
`CC(=O)N[C@H](C(=O)Nc1ccc(-c2ccc(-c3nc4ccc(C(F)(F)F)cc4[nH]3)cc2)cc1)C(C)C` came in with an IC50 of 890 nM.
`COc1ccc2nccc(N(C)CC3(O)CCN(CC(O)c4ccc5c(c4)NC(=O)CS5)CC3)c2n1` (centres undefined) registered an IC50 of 590 nM.
In the case of `COc1ccc(Nc2nccc(-c3c(-c4cccc(NC(=O)c5c(F)cccc5F)c4)nn4ccccc34)n2)cc1Cl`, the IC50 was found to be 280 nM.
`COc1cc(N)c(Cl)cc1C(=O)NC1CCC(NCC2CCCCC2)CC1` (centres undefined) displayed an IC50 of 430 nM.
Consider `CN(C)c1ccc(-c2csc(C(=O)NCC3CCN(Cc4cccc(C(F)(F)F)c4)C3)c2)cc1` (centres undefined), for which the IC50 worked out at 840 nM.
Compound `Cc1cccc2[nH]c(-c3ccc(-c4cccc(NC(=O)Nc5ccc(F)c(F)c5F)c4)cc3)nc12` showed an IC50 of 340 nM.
Next, `COc1ccc2[nH]cc(C3CCN(Cc4ccc(NC(=O)c5ccc(-c6ccccc6)cc5)cc4)CC3)c2c1`: 770 nM; `O=C(Nc1ccc(Cn2ncc(N3CCCNCC3)c(Cl)c2=O)cc1)Nc1ccc(OCc2ccccc2)cc1`: 820 nM; `CN1CCN(Cc2ccc(OCc3cccc(COc4ccc(CN5CCN(C)CC5)cc4I)c3)c(I)c2)CC1`: 1010 nM.
Turning to `COc1ccc(Nc2nccc(N3CCC(NC(=O)c4cccc(NC(C)=O)c4)C3)n2)cc1` (centres undefined), the IC50 came out at 990 nM.
Consider `Cc1cc(-c2nc3ccc(C(=N)N)cc3[nH]2)c(C)cc1-c1nc2ccc(C(=N)N)cc2[nH]1`, for which the IC50 stood at 400 nM.
Regarding `COc1ccc(CN2CCC(NCc3cccc(-n4ccnc4)c3)CC2)cc1`, the IC50 amounted to 630 nM.
Next, `Cc1cc(C=C(P(=O)(OC(C)C)OC(C)C)P(=O)(OC(C)C)OC(C)C)c2ccccc2c1O`: 1080 nM.
For `Cc1cccc(CN2CCN(c3ncc(C(=O)NC4CC4)cc3Cl)CC2)c1`, the half-maximal inhibitory concentration (IC50) amounted to 1310 nM.
The compound `Cc1nc2c(-n3cc(Cn4ccnc4)c4ccccc43)ncnc2n1-c1ccc(Cl)cc1Cl` gave an IC50 of 990 nM.
For `Cc1cc(NCC2CCN(CC3CCCCC3)C2)nc(Nc2ccc(Br)cc2)n1` (centres undefined), the IC50 was 880 nM.
For `COc1ccc2nc(C)cc(NN=Cc3cccc([N+](=O)[O-])c3)c2c1`, the IC50 amounted to 730 nM.
In the case of `COc1ccc2c(c1)CC1CN(CCCCNC(=O)c3ccc(NC(=O)c4cc(Cl)cc(Cl)c4)cc3)CCN1C2` (centres undefined) it was 770 nM; in that of `COc1ccc(-c2ccc(NC(=O)c3cccc(Cl)c3)cc2)cc1CN(C)CCN(C)C`, 780 nM.
Next, `CCc1cn(C)c2c(N3CCCC3=O)cc(C(=O)N[C@@H](Cc3ccccc3)[C@H](O)CNCc3cccc(OC)c3)cc12`: 780 nM; `Cc1cccc2[nH]c(-c3ccc(-c4ccc(CN5CCN(CC6CCCN(C)C6)CC5)cc4)s3)nc12` (centres undefined): 140 nM.
In the case of `COc1cccc(CNC(=O)c2cc(CNCc3ccccc3)ccc2-c2cccc(CNCc3ccc(-c4ccccc4)cc3)c2)c1` it was 850 nM; in that of `CCCN(CCC)C(=O)c1cc(C(=O)N[C@@H](Cc2ccccc2)[C@H](O)CNC(C)(C)c2cccc(OC)c2)cc(N2CCCCS2(=O)=O)c1`, 30 nM; in that of `O=C(Nc1cccnc1)c1cc(-c2cc(Cl)ccc2O)n[nH]1`, 720 nM.
As to `CO/C(=C\C=C\c1cc2cc(Cl)c(Cl)cc2[nH]1)C(=O)NCCCN1CCN(c2ccncc2)CC1`, the IC50 worked out at 730 nM.
`Cc1cc(N(C)C)nc(Nc2ccc(NC(=O)c3ccccc3Cl)cc2)n1` came in with an IC50 of 1020 nM.
For the compound `C=C[C@H]1CN(CCCCCCC)CC[C@H]1CCNc1ccnc2ccc(OC)cc12`, the IC50 turned out to be 60 nM.
In the case of `CCC(C)NS(=O)(=O)c1ccc2nc(Nc3ccc(C)cc3)n([C@H](C)C(C)(C)C)c2c1` (some centres undefined) it was 390 nM; in that of `O=C(Nc1ccc(Cl)cc1)Nc1ccc(-c2cccc(-c3nc4ccccc4[nH]3)c2)cc1`, 160 nM; in that of `COc1ccccc1Nc1nc(C)cc(NCc2ccc(-n3ccnc3)cc2)n1`, 1050 nM.
Consider `O=C(CCCCCNC(=O)c1ccc(O)c(-c2ccc(Cl)c(Cl)c2)c1)NC1CCCCCC1`, for which the IC50 came to 950 nM.
`COc1ccc(CNCCc2cccs2)cc1-c1ccc(OC)c(S(=O)(=O)NCCN2CCCC2)c1`: the 50% inhibitory concentration (IC50) was 1410 nM.
In turn, `COC(=O)c1cccc(CNCc2ccc(-c3cccc(-c4nc5ccccc5[nH]4)c3)cc2)c1` registered an IC50 of 260 nM.
Take `CCCCNC(=O)[C@H](Cc1ccccc1)NC(=O)c1ccc(O)c(-c2ccc(Cl)c(Cl)c2)c1`: the IC50 was determined as 530 nM.
The compound `CN1CCCC(CN2CCN(Cc3ccc(-c4ccc(-c5nc6ccccc6[nH]5)cc4)cc3)CC2)C1` (centres undefined) gave a half-maximal inhibitory concentration (IC50) of 140 nM.
In turn, `O=C(NCc1ccc2c(c1)OCO2)c1nn(CCN2CCC(N3CCCC3)CC2)cc1-c1ccc(Cl)c(Cl)c1` displayed a 50% inhibitory concentration (IC50) of 940 nM.
In the case of `COc1cccc(CNC(=O)c2cccc(-c3ccc(CN4CCC(N5CCCC5)CC4)cc3)n2)c1` it was 1790 nM; in that of `Fc1ccc(CNc2ncc(-c3ccsc3)c(-c3nccs3)n2)cc1`, 70 nM.
As for `Nc1ncc(-c2cn[nH]c2)cc1-c1nc2ncc(Cl)cc2[nH]1`, the IC50 came out at 910 nM.
Take `COC(=O)c1ccc(CC(C)NCC(O)c2ccc(C(O)CNC(C)Cc3ccc(C(=O)OC)cc3)cc2)cc1` (centres undefined): the half-maximal inhibitory concentration (IC50) was found to be 1030 nM.
As to `Cc1sc2nc(CN3CCCC3)nc(-n3c(NCCO)nc4ccccc43)c2c1C`, the IC50 was 1240 nM.
On to `COc1ccc2nccc([C@@H](O)CN3CCC(NCC4COc5ccccc5O4)CC3)c2c1` (some centres undefined), for which the concentration for half-maximal inhibition (IC50) stood at 250 nM.
Regarding `Cc1cccc(Nc2nc(C)cc(N3CCCN(CC4CCCCC4)CC3)n2)c1`, the IC50 was 1120 nM.

Usually IC50 stands for the midpoint of a concentration-inhibition curve.
